Laboratory results: patent publication US20230183179A1, “NOVEL CELL METABOLISM MODULATING COMPOUNDS AND USES THEREOF” (CRESCENTA BIOSCIENCES, priority 2020, published 2023)

What was measured:
[1] = system: differentiated 3T3-L1 mouse adipocyte cells; test: Adipocyte glucose consumption in differentiated 3T3-L1 cells (colorimetric glucose assay of the medium); type: cell-based; settings: 3T3-L1, 24 h, compound 10 μM, loss of glucose from culture medium, mean fold change (compound/DMSO)
Method in brief: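 Differentiated 3T3-L1 mouse adipocytes (rosiglitazone/dexamethasone/IBMX/insulin induction, day 11) treated 24 h with compounds at 10 μM, 0.1% DMSO final. Medium glucose measured colorimetrically; consumption taken as glucose loss from medium versus cell-free control, expressed as mean fold change compound/DMSO ±SD.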

[2] = molecular target: T1, His6 tagged human recombinant FABP4 (Homo sapiens, UniProt P15090); test: FABP4 TR-FRET assay: displacement of fluorescent fatty acid BODIPY FL C12; settings: inhibition of BODIPY FL C12 binding to His6-FABP4; 1.2 μL of 1.085 mM compound in DMSO per well; triplicates, mean percent inhibition
T1 construct: purchased Cayman Chemicals 10009549
Method in brief: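 TR-FRET displacement of BODIPY FL C12 from His6-FABP4 bound by Tb-anti-His6 antibody, in Tris pH 7.4 buffer with γ-globulins, NP-40 and DTT; compound stock 1.085 mM in DMSO. Read after 10 min at room temperature as 520/615 nm ratio; mean % inhibition versus DMSO from triplicates.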

T1 sequence (P15090 whole entry): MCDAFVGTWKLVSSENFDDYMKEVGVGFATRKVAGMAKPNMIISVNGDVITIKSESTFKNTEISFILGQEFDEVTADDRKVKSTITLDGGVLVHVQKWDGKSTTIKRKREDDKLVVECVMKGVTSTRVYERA

Row | SMILES | fold induction at 10 µM [1] | inhibition at 1085 µM (stock) [2] [%]
1 | CCCCCCc1ccc2nc(N(C)CC(=O)O)cc(Oc3cccc(F)c3)c2c1 [2-{[4-(3-fluorophenoxy)-6-hexylquinolin-2-yl](methyl)amino}acetic acid] | 1.21 | 98.8
2 | CCCCc1ccc2nc(OCC(=O)O)c(C(=O)O)c(-c3ccccc3)c2c1 [6-butyl-2-(carboxymethoxy)-4-phenylquinoline-3-carboxylic acid] | 0.99 | 44.6
3 | CCCCCCc1ccc2nc(N(C)CC(=O)O)cc(Oc3ccc(F)cc3)c2c1 [2-([4-(4-fluorophenoxy)-6-hexylquinolin-2-yl](methyl)amino}acetic acid] | 1.27 | 65.2
4 | Cc1ccccc1CCc1ccc2nc(N(C)CC(=O)O)cc(-c3ccccc3)c2c1 [2-[methyl({6-[2-(2-methylphenyl)ethyl]-4-phenylquinolin-2-yl})amino]acetic acid] | 1.4 | 38.2
5 | CN(CC(=O)O)c1cc(-c2ccccc2)c2cc(CCN3CCOCC3)ccc2n1 [2-[methyl({6-[2-(morpholin-4-yl)ethyl]-4-phenylquinolin-2-yl})amino]acetic acid] | 1.13 | 6.78
6 | CCCCCc1ccc2nc(OCC(=O)O)cc(-c3ccccc3)c2c1 [2-[(6-pentyl-4-phenylquinolin-2-yl)oxy]acetic acid] | 1.05 | 55.1
7 | CCCc1ccc2nc(OCC(=O)O)cc(-c3cccc(C#N)c3)c2c1 [2-([4-(3-cyanophenyl)-6-propylquinolin-2-yl]oxy}acetic acid] | 1.06 | 34.8
8 | CCCCc1ccc2nc(N(C)CC(C)C(=O)O)cc(-c3cccc(C#N)c3)c2c1 (stereo not drawn) [3-{[6-butyl-4-(3-cyanophenyl)quinolin-2-yl](methyl)amino}-2-methylpropanoic acid] | 1.21 | 38.7
9 | CCCCCCc1ccc2nc(N(C)CC(=O)O)cc(N3CCOCC3)c2c1 [2-{[6-hexyl-4-(morpholin-4-yl)quinolin-2-yl](methyl)amino}acetic acid] | 1.31 | 26.5
10 | CN(CC(=O)O)c1cc(-c2ccccc2)c2cc(Cl)ccc2n1 [2-[(6-chloro-4-phenylquinolin-2-yl)(methyl)amino]acetic acid] | 1.14 | 99.7
11 | CN(CC(=O)O)c1cc(-c2ccncc2)c2cc(CCc3cccnc3)ccc2n1 [2-[methyl({6-[2-(pyridin-3-yl)ethyl]-4-(pyridin-4-yl)quinolin-2-yl})amino]acetic acid] | 1.06 | 24.6
12 | COc1ccccc1CCc1ccc2nc(N(C)CC(=O)O)cc(-c3ccccc3)c2c1 [2-({6-[2-(2-methoxyphenyl)ethyl]-4-phenylquinolin-2-yl}(methyl)amino)acetic acid] | 1.11 | 65.1
13 | CCCCCc1ccc2nc(OCC(=O)O)cc(-c3cccc(C#N)c3)c2c1 [2-{[4-(3-cyanophenyl)-6-pentylquinolin-2-yl]oxy}acetic acid] | 1.01 | 10.6
14 | COc1cccc(CCc2ccc3nc(N(C)CC(=O)O)cc(-c4ccccc4)c3c2)c1 [2-({6-[2-(3-methoxyphenyl)ethyl]-4-phenylquinolin-2-yl}(methyl)amino)acetic acid] | 1.31 | 93.2
15 | CCCCc1ccc2nc(N3CCCCC3)cc(-c3ccccc3)c2c1 [6-butyl-4-phenyl-2-(piperidin-1-yl)quinoline] | 0.99 | 56.5
16 | CCCCc1ccc2nc(N3CCCC(C(=O)O)C3)cc(-c3cccc(C#N)c3)c2c1 (stereo not drawn) [1-[6-butyl-4-(3-cyanophenyl)quinolin-2-yl]piperidine-3-carboxylic acid] | 0.91 | 24.3
17 | CCCCc1ccc2nc(N(C)CC(=O)O)cc(-c3ccc(C)cc3)c2c1 [2-{[6-butyl-4-(4-methylphenyl)quinolin-2-yl](methyl)amino}acetic acid] | 1.36 | 30.8
18 | CCCCCCc1ccc2nc(N(CC(=O)O)CC(C)C)cc(-c3ccc(F)cc3)c2c1 [2-{[4-(4-fluorophenyl)-6-hexylquinolin-2-yl](2-methylpropyl)amino}acetic acid] | 1.18 | 78.7
19 | CCCCc1ccc2nc(N(C)CC(=O)O)cc(-c3cccc(O)c3)c2c1 [2-{[6-butyl-4-(3-hydroxyphenyl)quinolin-2-yl](methyl)amino}acetic acid] | 1.28 | 83.8
20 | O=C(O)COc1cc(-c2ccccc2)c2cc(Cl)ccc2n1 [2-[(6-chloro-4-phenylquinolin-2-yl)oxy]acetic acid] | 1.1 | 34.4

Row | SMILES | fold induction at 10 µM [1] | inhibition at 1085 µM (stock) [2] [%]
21 | CCCCCCCCc1ccc2nc(N(C)CC(=O)O)cc(-c3ccccc3)c2c1 [2-[methyl(6-octyl-4-phenylquinolin-2-yl)amino]acetic acid] | 1.52 | 99.3
22 | CN(CCc1ccc2nc(N(C)CC(=O)O)cc(-c3ccccc3)c2c1)c1ccccc1 [2-[methyl(6-{2-[methyl(phenyl)amino]ethyl}-4-phenylquinolin-2-yl)amino]acetic acid] | 1.17 | 55.9
23 | CN(CC(=O)O)c1cc(-c2ccccc2)c2cc(CCc3ccc4ncccc4c3)ccc2n1 [2-[methyl({4-phenyl-6-[2-(quinolin-6-yl)ethyl]quinolin-2-yl})amino]acetic acid] | 1.4 | 34.7
24 | CCCCCCc1ccc2nc(N(C)CC(=O)O)cc(-c3ccccc3)c2c1 [2-[(6-hexyl-4-phenylquinolin-2-yl)(methyl)amino]acetic acid] | 1.41 | 88.2
25 | CN(CC(=O)O)c1cc(-c2ccccc2)c2cc(CCc3ccc4nccnc4c3)ccc2n1 [2-[methyl({4-phenyl-6-[2-(quinoxalin-6-yl)ethyl]quinolin-2-yl})amino]acetic acid] | 1.33 | 33.6
26 | CCCCCCc1ccc2nc(OC(C)C(=O)O)cc(-c3cccc(C#N)c3)c2c1 (stereo not drawn) [2-{[4-(3-cyanophenyl)-6-hexylquinolin-2-yl]oxy}propanoic acid] | 1.19 | 3.3
27 | CN(CC(=O)O)c1cc(-c2ccccc2)c2cc(CCc3ccc4cccnc4c3)ccc2n1 [2-[methyl({4-phenyl-6-[2-(quinolin-7-yl)ethyl]quinolin-2-yl})amino]acetic acid] | 1.25 | 43.5
28 | CCCCCCc1ccc2nc(N3CCC(C)(C(=O)O)C3)cc(-c3ccccc3)c2c1 (stereo not drawn) [1-(6-hexyl-4-phenylquinolin-2-yl)-3-methylpyrrolidine-3-carboxylic acid] | 1.36 | 36.4
29 | NC(=O)c1cccc(-c2cc(OCC(=O)O)nc3ccc(Br)cc23)c1 [2-{[6-bromo-4-(3-carbamoylphenyl)quinolin-2-yl]oxy}acetic acid] | 1 | 19.1
30 | CCCCCCCCc1ccc2nc(N(CC)CC(=O)O)cc(-c3ccc(F)cc3)c2c1 [2-{ethyl[4-(4-fluorophenyl)-6-octylquinolin-2-yl]amino}acetic acid] | 1.25 | 65.8
31 | CCCc1ccc2nc(N(C)CC(=O)O)cc(-c3ccccc3)c2c1 [2-[methyl(4-phenyl-6-propylquinolin-2-yl)amino]acetic acid] | 1.36 | 104
32 | CCCCCCc1ccc2nc(N(C)C(C)CC(=O)O)cc(-c3cccc(C#N)c3)c2c1 (stereo not drawn) [3-{[4-(3-cyanophenyl)-6-hexylquinolin-2-yl](methyl)amino}butanoic acid] | 1.03 | 77.9
33 | O=C(O)C1CCCN1c1cc(-c2ccccc2)c2cc(Cl)ccc2n1 (stereo not drawn) [1-(6-chloro-4-phenylquinolin-2-yl)pyrrolidine-2-carboxylic acid] | 1.08 | 105
34 | CCc1ccc2nc(N(C)CC(=O)O)cc(-c3cccc(C(N)=O)c3)c2c1 [2-{[4-(3-carbamoylphenyl)-6-ethylquinolin-2-yl](methyl)amino}acetic acid] | 1.07 | 78
35 | CCCCCCc1ccc2c(-c3ccccc3)cc(N(C)CC(=O)O)nc2c1 [2-[(7-hexyl-4-phenylquinolin-2-yl)(methyl)amino]acetic acid] | 1.26 | 25.3
36 | CN(CC(=O)O)c1cc(-c2ccccc2)c2cc(CCc3ncccn3)ccc2n1 [2-[methyl({4-phenyl-6-[2-(pyrimidin-2-yl)ethyl]quinolin-2-yl})amino]acetic acid] | 1.35 | < 0
37 | CCCc1ccc2nc(OCC(=O)O)cc(-c3ccccc3)c2c1 [2-[(4-phenyl-6-propylquinolin-2-yl)oxy]acetic acid] | 0.99 | 33.8
38 | CCCCCOc1ccc2nc(N(C)CC(=O)O)cc(-c3ccccc3)c2c1 [2-{methyl [6-(pentyloxy)-4-phenylquinolin-2-yl]amino}acetic acid] | 1.27 | 102
39 | CCCCCCc1ccc2nc(N(CCC)CC(=O)O)cc(-c3ccc(F)cc3)c2c1 [2-{[4-(4-fluorophenyl)-6-hexylquinolin-2-yl](propyl)amino}acetic acid] | 1.13 | 57.1
